Where a name gives a salt, the structure may show the parent alone. Read-outs that look alike come from different tables or passages of the source. Marks after values point to notes of the source that are not given here.
Tests used:
[1] = tested on: MRMT-1 rat mammary gland carcinoma cells; assay: Rat MRMT-1 bone metastasis model (osteolysis, osteoclasts, tumor); format: in vivo
Experimental: Rat MRMT-1 bone metastasis model. Inoculation of rat mammary MRMT-1 adenocarcinoma cells into tibiae has been described as a bone metastasis model (Medhurst S J, et al., Pain 2002; 96:129-40. An adaptation of the model (Roudier M P, et al., Clin Exp Metastasis 2006, 23:167-75) was performed by MDS Pharma Services (Bothel, Wash.). Female Sprague-Dawley rats (Harlan Sprague Dawley, Inc., Indianapolis, Ind.) approximately 125-150 grams were acclimated one week. The animals were anesthetized with ketamine/xylazine, and the right leg area was shaved and scrubbed with chlorhexadine and 70% ethanol (SOP-SUR026). A 1-cm rostral-caudal incision was made in the skin over the top half of the tibia. Blunt-dissection exposed the proximal tibia, and a Hamilton syringe guided by a 23-gauge needle was used to inject 3 μl of saline (sham) or saline containing 3×10^4 MRMT-1 cells into the medullary cavity of the right proximal tibia of each rat. The injection site was closed with bone wax. The wound was closed with surgical staples. […] To serve as a control, a fourth group was dosed QOD sc with 0.03 mg/kg zoledronate in saline. Eight rats were dosed per group. Rats were sacrificed on Day 17. Right tibiae were excised, together with surrounding tumor tissue, and microradiographs prepared using an MX-20 x-ray system (Faxitron X-ray Corporation, Wheeling, Ill.). Microradiographs were scored for tumor-induced osteolysis as follows: 0, no signs of destruction; 1, one to three small radiolucent lesions; 2, three to six lesions and loss of medullary bone; 3, loss of medullary bone and erosion of cortical bone; 4, full thickness uni-cortical bone loss; 5, full thickness bi-cortical bone loss and/or displaced skeletal fracture. The radiographs were used to select representative bones from each group for microCT imaging. All tibia were fixed in 10% neutral buffered formalin for two days, decalcified and sectioned for histopathological evaluation. TRAP staining was performed as described previously in Liu, C., et al., 1987. […] For each tibia, the numbers of tumor-associated TRAP^+ osteoclasts were counted in the three 200×-fields with highest osteoclast frequency. A semi-quantitative three-point scoring method was used to compare treatment groups with regards to trabecular bone volume (3, >40 area; 2, >10%<40% area (normal); 1, 1-10% area; 0, none) and tumor volume (3, large; 2, moderate; 1, small; 0, none).

[2] = tested on: NCTC 2472 osteolytic sarcoma cells; assay: 2472 sarcoma model: pain-related behaviors; format: in vivo, mouse
Experimental: (§1) 2472 sarcoma model of secondary bone tumor pain and osteolysis. Experiments were performed on adult male C3H/HeJ mice (Jackson Laboratories, Bar Harbor, Me., USA), approximately 7-8 weeks old, weighing 25-30 g at the time of tumor cell injection. An arthrotomy was performed following induction of general anesthesia with ketamine/xylazine (2:1 ratio; intramuscular (i.m.)). A needle was inserted into the intramedullary canal to create a pathway for the sarcoma cells. A depression was then made using a pneumatic dental high speed handpiece. Mice were injected with Hanks buffered saline (HBSS) (20 ul, Sigma, St. Louis, Mo., USA) or HBSS containing the 2472 sarcoma line (ATCC, Rockville, Md., USA). The injection site is sealed with a dental amalgam plug to confine the cells within the intramedullary canal and followed by irrigation with sterile water (hypotonic solution). Finally, incision closure is achieved with a wound clip. Clips are removed at day 5 as not to interfere with behavioral testing.
A variety of behavioral measurements were used to assess the extent of bone cancer pain.
Spontaneous nocifensive behaviors: The number of spontaneous flinches and guarding, representative of nociceptive behavior, were recorded during a 2-minute observation period. Flinches are defined as number of times the animal raises its hindpaw and guarding as the amount of time animals hold the hindpaw aloft while stationary.
Palpation-induced nocifensive behaviors: Mechanical allodynia at the knee joint was evaluated by normally non-noxious palpation of the distal femur every second for 2 minutes. Following the 2-minute palpation, the mice were placed in the observation box and their palpation-induced guarding and flinching behavior was measured for an additional 2 minutes, as discussed above.

[3] = tested on: NCTC 2472 osteolytic sarcoma cells; assay: 2472 sarcoma model of secondary bone tumor: osteolysis and histology; format: in vivo, mouse; conditions: for Bone erosion score (visual, scale 0-5, microradiographs): Day 15
Experimental: as §1
The extent of tumor-induced bone reorganization (osteolysis) was radiologically assessed using Faxitron analysis (Specimen Radiography System Model MX-20, Faxitron X-ray Corporation, Wheeling, Ill., and Kodak film Min-R 2000, Rochester, N.Y.). Radiographs of tumor-bearing femora were scored on a 0 to 5 scale: (0) normal bone with no signs of destruction; (1) small pits of bone destruction (1-3 in number); (2) increased pitted appearance (3-6) and loss of medullary bone; (3) loss of medullary bone and erosion of cortical bone; (4) full thickness unicortical bone loss; (5) full thickness bicortical bone loss and displaced skeletal fracture.

[4] = tested on: NCI-H460 human lung carcinoma cells; conditions: for final tumor weights reduced by: at study termination
H460, MDA-MB-231, A375 = assay: Growth factor-independent proliferation of adenocarcinoma cells; format: cell-based, human
[5] = JNJ-141 20 mpk oral twice daily, Day 3 to Day 17, mean ± SEM
[6] = JNJ-141 60 mpk oral twice daily, Day 3 to Day 17, mean ± SEM
[7] = 60 mg/kg oral twice daily, tumor mice
[8] = 120 mg/kg oral twice daily, sham mice
[9] = 120 mg/kg oral twice daily, tumor mice
[10] = 25 mg/kg oral twice daily, mean ± SEM
[11] = 50 mg/kg oral twice daily, mean ± SEM
[12] = 100 mg/kg oral twice daily, mean ± SEM

## CN(C)CC(=O)N1CCC(c2ccc(NC(=O)c3nc(C#N)c[nH]3)c(C3=CCCCC3)c2)CC1 [JNJ-141, 4-cyano-N-[2-(1-cyclohexen-1-yl)-4-[1-[(dimethylamino)acetyl]-4-piperidinyl]phenyl]-1H-imidazole-2-carboxamide monohydrochloride]
[1]; [5]
  Microradiograph score (five point visual score): 0.75 ± 0.17
  Osteoclast Counts (TRAP positive cells, mean of three 200x fields): 3.7 ± 0.7
  Tumor vol score (three point visual score): 1.75 ± 0.48
[1]; JNJ-141 20 or 60 mg/kg oral twice daily
  tumor-associated osteoclasts reduced by: greater than 95%
[1]; [6]
  Microradiograph score (five point visual score): 0.83 ± 0.18
  Osteoclast Counts (TRAP positive cells, mean of three 200x fields): 2.6 ± 1.5
  Trabecular bone vol score (three point visual score): 2.33 ± 0.23
  Tumor vol score (three point visual score): 1.50 ± 0.55
[2]; [7]
  PIF Day 7 (palpation-induced flinches over 2 minutes): 10.3
  PIF Day 9 (palpation-induced flinches over 2 minutes): 14.3
  PIF Day 11 (palpation-induced flinches over 2 minutes): 16.3
  PIF Day 13 (palpation-induced flinches over 2 minutes): 12.7*
  PIF Day 15 (palpation-induced flinches over 2 minutes): 11.7**
  PIG Day 15 (palpation-induced guarding time over 2 minutes): 9.1* sec
  SF Day 15 (spontaneous flinches over 2 minutes): 10*
  SG Day 15 (spontaneous guarding time over 2 minutes): 7.9 s
[2]; [8]
  PIF Day 7 (palpation-induced flinches over 2 minutes): 2.5
  PIF Day 9 (palpation-induced flinches over 2 minutes): 1.3
  PIF Day 11 (palpation-induced flinches over 2 minutes): 1.3
  PIF Day 13 (palpation-induced flinches over 2 minutes): 1.8
  PIF Day 15 (palpation-induced flinches over 2 minutes): 1.8
  PIG Day 15 (palpation-induced guarding time over 2 minutes): 0.9 s
  SF Day 15 (spontaneous flinches over 2 minutes): 1.3
  SG Day 15 (spontaneous guarding time over 2 minutes): 0.6 s
[2]; [9]
  PIF Day 7 (palpation-induced flinches over 2 minutes): 9.5
  PIF Day 9 (palpation-induced flinches over 2 minutes): 7.8**
  PIF Day 11 (palpation-induced flinches over 2 minutes): 8.5**
  PIF Day 13 (palpation-induced flinches over 2 minutes): 10.3**
  PIF Day 15 (palpation-induced flinches over 2 minutes): 9.3**
  PIG Day 15 (palpation-induced guarding time over 2 minutes): 6.4** sec
  SF Day 15 (spontaneous flinches over 2 minutes): 8.5**
  SG Day 15 (spontaneous guarding time over 2 minutes): 6.1** sec
[2]; 120 mg/kg, Day 15
  palpation induced flinching reduced by: approximately 50%
[3]; 60 mg/kg oral twice daily, NCTC 2472 tumor mice
  Bone erosion score (visual, scale 0-5, microradiographs): 3.5
[3]; [7]
  Macrophage Counts (CD68 positive cells): 84** Counts per high powered field
  Osteoclast Counts (TRACP positive cells): 79** Counts per high powered field
  Tumor area % marrow: 100%
[3]; 120 mg/kg oral twice daily, NCTC 2472 tumor mice
  Bone erosion score (visual, scale 0-5, microradiographs): 2.0**
[3]; 120 mg/kg oral twice daily, sham (saline) mice
  Bone erosion score (visual, scale 0-5, microradiographs): 0.25
[3]; [8]
  Macrophage Counts (CD68 positive cells): 28 Counts per high powered field
  Osteoclast Counts (TRACP positive cells): 41 Counts per high powered field
[3]; [9]
  Macrophage Counts (CD68 positive cells): 140* Counts per high powered field
  Osteoclast Counts (TRACP positive cells): 147 Counts per high powered field
  Tumor area % marrow: 90%
[4]; 25 mg/kg oral twice daily (qd on weekends) from day 3, mean ± SEM
  Mean final tumor weight, mg: 1,257 ± 209 mg
[4]; [10]
  Macrophage density, % area (F4/80 positive, 200X-field): 4.3 ± 0.68 % area
  Microvascular density, % area (CD31 positive): 3.73 ± 0.81 % area
[4]; 25 mg/kg oral
  final tumor weights reduced by: 21%
[4]; 50 mg/kg oral twice daily (qd on weekends) from day 3, mean ± SEM
  Mean final tumor weight, mg: 1,070 ± 121 mg
[4]; [11]
  Macrophage density, % area (F4/80 positive, 200X-field): 2.6 ± 0.57 % area
  Microvascular density, % area (CD31 positive): 2.10 ± 0.57 % area
[4]; 50 mg/kg oral
  final tumor weights reduced by: 32%
[4]; 100 mg/kg oral twice daily (qd on weekends) from day 3, mean ± SEM
  Mean final tumor weight: 870 ± 94 mg
[4]; [12]
  Macrophage density, % area (F4/80 positive, 200X-field): 0.31 ± 0.14 % area
  Microvascular density, % area (CD31 positive): 1.25 ± 0.16 % area
[4]; 100 mg/kg oral
  final tumor weights reduced by: 45%
[4]; highest dose (100 mg/kg)
  reduction in tumor vascularity (vessel density): 66%
H460, MDA-MB-231, A375; 5 μM, monohydrochloride
  growth factor-independent (serum-dependent) proliferation in culture: did not inhibit
H460, MDA-MB-231, A375; Homo sapiens, H460, MDA-MB-231, A375, no stimulus, determined once
  IC50: > 5 µM
